ChEMBL document CHEMBL4414580, “(-)-Epigallocatechin 3-O-Gallate as a New Approach for the Treatment of Visceral Leishmaniasis” (J Nat Prod, 2019)
The source made the active and inactive calls. The rule behind the calls is not given here.

Columns and labels:
[1] = tested on: Leishmania infantum; assay: Antileishmanial activity against Leishmania infantum MHOM/MA/67/ITMAP263 promastigotes infected in BALB/c mouse peritoneal macrophages assessed as decrease in parasitic infection index incubated for 72 hrs by light microscopy; type: functional, organism-based
[2] = tested on: Leishmania infantum; assay: (§1) Antileishmanial activity against stationary phase of Leishmania infantum MHOM/MA/67/ITMAP263 promastigotes infected in BALB/c mouse assessed as decrease in parasitic load in liver at 50 mg/kg/day administered orally via gavage as bid for 5 days on 7th day post infection and measured on day 30 by limiting dilution assay relative to control; type: functional; details: MHOM/MA/67/ITMAP263, po
[3] = tested on: Leishmania infantum; assay: Antileishmanial activity against Leishmania infantum MHOM/MA/67/ITMAP263 promastigotes infected in BALB/c mouse peritoneal macrophages assessed as decrease in parasitic infection index at 48 uM incubated for 72 hrs by light microscopy relative to control; type: functional; details: MHOM/MA/67/ITMAP263, 72 h
[4] = tested on: Leishmania infantum; assay: (§2) Antileishmanial activity against stationary phase of Leishmania infantum MHOM/MA/67/ITMAP263 promastigotes infected in orally dosed BALB/c mouse assessed as decrease in parasitic load in liver administered via gavage bid for 5 days on 7th day post infection and measured on day 30 by limiting dilution assay; type: functional
[5] = Selectivity index, ratio of CC50 for mouse peritoneal macrophages to EC50 for Leishmania infantum MHOM/MA/67/ITMAP263 promastigotes infected in BALB/c mouse peritoneal macrophages; type: toxicity; details: read-out: Ratio CC50/EC50
[6] = tested on: Leishmania infantum; assay: as §1, with “MHOM/MA/67/ITMAP263” for “MHOM/MA/67/ITMAP263 promastigotes”, “25” for “50”; type: functional; details: MHOM/MA/67/ITMAP263, po
[7] = tested on: Leishmania infantum; assay: as §1, with “MHOM/MA/67/ITMAP263” for “MHOM/MA/67/ITMAP263 promastigotes”, “12.5” for “50”; type: functional; details: MHOM/MA/67/ITMAP263, po
[8] = tested on: Leishmania infantum; assay: as §2, with “in” for “in orally dosed”, “at 50 mg Sb5+/kg/day, im once daily” for “administered via gavage bid”; type: functional, organism-based

## O=C(O[C@@H]1Cc2c(O)cc(O)cc2O[C@@H]1c1cc(O)c(O)c(O)c1)c1cc(O)c(O)c(O)c1 [EPIGALOCATECHIN GALLATE]
[1]
  inhibition: Dose-dependent effect
[1]; MHOM/MA/67/ITMAP263, 72 h
  EC50: 2600 nM
[2]
  inhibition in vivo at 50 mg/kg/day: 98.7%
[3]
  inhibition at 48 µM: 97.7%
[4]
  inhibition: Dose-dependent effect
[4]; MHOM/MA/67/ITMAP263, po
  ED50: 12.4 mg/kg/day
  ED90: 21.5 mg/kg/day
[5]
  selectivity ratio: 168
[6]
  inhibition in vivo at 25 mg/kg/day: 93.6%
[7]
  inhibition in vivo at 12.5 mg/kg/day: 47.5%

## Meglumine antimoniate
[8]
  inhibition: Active
